Where two headings read alike, the source gives them in different places.
Legend:
[1] = test system: low-threshold calcium channel in central neurons; conditions: Tang C-M., et al., Science, 240:213; cited from earlier work
[2] = test system: calcium channel reconstituted in a lipid bilayer; format: biochemical, guinea pig; conditions: for concentration at which single channels were blocked: cerebellar-origin channel, 80 mM BaCl2 cis / 120 mM CsCl trans; for calcium channel activity of the reconstituted channel: concentration not given
[3] = test system: calcium channel in vesicles; experiment: Calcium uptake into quin-2-loaded vesicles (fluorescence)
[4] = test system: low-threshold calcium channel; experiment: Low-threshold calcium channel isolated on amiloride gel, lipid bilayer; format: biochemical, Guinea pig; conditions: 250micromolar
Protocol: Guinea pig cerebellar material was processed as in Example 7. It was then purified according to the method of Example 8 except that the amiloride gel chromatography was performed after the factor-coupled gel chromatography. (The latter chromatographic purification was thus used to remove the high-threshold channel recognized by the active factor of the present invention.)
The low-threshold calcium channel was eluted from the amiloride gel using 400 mM sucrose, 10 mM HEPES (pH 7.4) containing 1 mM amiloride.
The channel activity of the thus-purified gel was tested as described above by the lipid bilayer technique. The channel has an estimated conductance of about 8 pS, is characterized by rapid openings (of the order of 1-100 msec at […]), is rapidly inactivated (within about 1 sec at the same depolarization), and was blocked by cadmium (250micromolar).

For `N=C(N)NC(=O)c1nc(Cl)c(N)nc1N` [amiloride, 3,5-diamino-N-(aminoiminomethyl)-6-chloropyrazine carboxamide], which “block of low-threshold calcium channel” value [1] is on record?
Its value is “specifically blocks”.

With `COC(=O)C1=C(C)NC(C)=C(C(=O)OC)C1c1ccccc1[N+](=O)[O-]` [nifedipine] as the compound, how does the “effect on the isolated calcium channels” value ([2]; 5×10^-6 M) read?
Its value is “neither blocker had an effect”.

With `[Co]` [cobalt] as the compound, how does the “Calcium Conductance” value ([2]; 100 mM CaCl2 pH 7.5 and 20 M × 10^-6 Co^++ outside only, voltage range ±200) read?
The value was “none”.

And the “concentration at which single channels were blocked” value [2]?
Its value is “less than 100 micromolar”.

And the “calcium channel activity of the reconstituted channel” value (from here on “calcium channel activity”) [2]?
Its value is “blocked”.

And the “calcium channel activity” value ([2]; listed as Co^++)?
The value was “completely blocked”.

With `[Cd]` [cadmium] as the compound, how does the “uptake of calcium into the vesicles” value ([3]; 50 micromolar, calcium 2 mM additions) read?
Its value is “blocked”.

What about the “intravesicular fluorescence over time” value ([3]; 100 micromolar before addition of 2 mM CaCl2) of the same compound?
The value was “did not increase with time and remained at the baseline”.

And the low-threshold channel activity [4]?
The low-threshold channel activity was “blocked”.

What about the “concentration at which single channels were blocked” value [2] of the same compound?
The value was “less than 100 micromolar”.

What about the “calcium channel activity” value [2] of the same compound?
The value was “blocked”.

And the “calcium channel activity” value ([2]; listed as Cd^++)?
The value was “completely blocked”.

— US4950739A (priority 1988, dated 1990)
